The test system of this series is THP-1 cells. Put plainly: Total RNA levels (ng/μL) as a marker for cell viability. The format is cell-based, human. Here is the method:
Control and treated cells are transferred to separate sterile 1.5-mL tubes and centrifuged for 5 minutes at 300 g. The cell pellets are resuspended in appropriate buffer to lyse the cells. RNAase-free 70% ethanol is then added followed by mixing by pipetting. The lysates are transferred to an RNeasy™ Mini spin column and centrifuged 30 seconds at 13000 RPM. After several washes with appropriate buffers and centrifugation steps, the eluates are collected in sterile 1.5-mL tubes on ice, and the RNA quantity in each tube is then quantified with a spectrophotometer. For DNase treatment, 2 μg of RNA is diluted in 15 μL of RNase-free water. 1.75 μL of 10× DNase buffer and 0.75 μL of DNase is then added, followed by incubation at 37° C. for 15 minutes. For reverse transcriptase treatment, 0.88 μL of EDTA ([…]) is added, followed by incubation at 75° C. for 5 minutes. In a PCR tube, 0.5 μg of DNase-treated RNA is mixed with 4 μL of iScript™ Reverse transcription Supermix (5×) and […] of nuclease-free water. The mix is incubated in a PCR machine with the following program: 5 min at 25° C., 30 min at 42° C. and 5 min at 85° C. Newly synthesized cDNA is transferred in sterile 1.5-mL tubes and diluted in 2 μL of nuclease-free water. 18 μL per well of a qPCR machine (CFX-96™) mix is then added in a PCR plate for analysis.
Briefly, THP-1 cells were plated at 30 000 cells/well one day before transduction. HOXB4-WT recombinant protein (0.3, 0.9, or 1.5 μM; Example 14.1) was co-incubated with different concentrations of His-CM18-PTD4 ([…], 0.8 or 1 μM) and then exposed to THP-1 cells for 2.5 hours in the presence of serum. The cells were subjected to real time-PCR analysis as described in Example 14.2 to measure the mRNA levels of a target gene as a marker for HOXB4 activity, which was then normalized to the target gene mRNA levels detected in the negative control cells (no treatment), to obtain a “Fold over control” value. Total RNA levels (ng/μL) were also measured as a marker for cell viability.

Where no end group is shown, it is not given here.

One sequence from patent publication US12060387B2, “Polypeptide-based shuttle agents for improving the transduction efficiency of polypeptide cargos to the cytosol of target eukaryotic cells, uses thereof, methods and kits relating to same” (priority 2015, dated 2024) can be followed below.

For “HHHHHHKWKLFKKIGAVLKVLTTGYARAAARQARA [His-CM18-PTD4 alone]”, the “Total RNA in ng/μL (mean ± St. Dev)” value was 252 ± 10.7 ng/µL (Table 14.1, shuttle 1 μM, HOXB4-WT 0 μM, 2.5 hours with serum); 184 ± 6.0 ng/µL (Table 14.2, shuttle 0.8 μM, HOXB4-WT 0 μM, exposure time 2.5 h, serum); 260 ± 7.1 ng/µL (Table 14.3, shuttle 0 μM, HOXB4-WT 0.3 μM, exposure time 2.5 h, serum); 303.9 ± 7.6 ng/µL (Table 14.4, shuttle 0 μM, HOXB4-WT 1.5 μM, exposure time 2.5 h, serum).
